Laboratory results published in patent US20200222400A1, “METHODS FOR THE TREATMENT OF NEUROLOGICAL DISORDERS” (Yumanity Therapeutics, Inc., priority 2019, published 2020).

System: rat cortical neurons transfected with alpha-synuclein A53T
Experiment: Neurite degeneration assay
Format: cell-based
Method: Rat primary cortical neurons cultured in 96-well plates (Greiner Bio-One) were co-transfected with a fluorescence reporter plasmid (encoding mKate2) and empty or alpha-synuclein-A53T overexpression plasmids by lipofection at 5-6 div (days in vitro). LIPOFECTAMINE® 2000 transfection reagent (Thermo Fisher) (0.5 μl/well) was diluted in NEUROBASAL® media (Thermo Fisher) and incubated for 5-10 min. The LIPOFECTAMINE®/NEUROBASAL® mixture was then added dropwise to a plasmid cocktail diluted in NEUROBASAL® media, and incubated for approximately 40 min. During this time, conditioned media on the neurons was replaced with media containing 1× kynurenic Acid (Sigma-Aldrich) in NEUROBASAL® media (NBKY). LIPOFECTAMINE®/DNA complex solutions were subsequently added dropwise to neurons in the NBKY media in the 96-well plate. Lipofection was carried out for 30-40 min in a standard cell culture incubator (37° C., 5% CO2). Neurons were then washed with NEUROBASAL® media, and 50% conditioned/50% fresh NEUROBASAL® media containing B-27 supplement and GlutaMax™ (Thermo Fisher) (NBM) was applied to the cultures.
Transfected rat cortical neuron cultures were treated with DMSO or CAY10566 compound 4-6 h post-transfection. […] Neurite lengths of transfected neurons were tracked by an RFP reporter, mKate2, and measured by NeuroTrack™ Software Module (Essen Bioscience). […]

Cc1nnc(-c2ccc(N3CCC(Oc4cc(F)ccc4Cl)CC3)nn2)o1 [CAY10566]
neurite degeneration at highest concentrations (10 nM and 3 nM): complete rescue
neurite degeneration (titration, tracked every 6 h for 7 d, relative to DMSO): concentration-dependent decrease in neurite degeneration
